Reference: ChEMBL document CHEMBL3886513, “Benzothiazole-based pyridinium compounds” (2016)

How the values were obtained:
[1] = molecular target: Acetylcholinesterase (Homo sapiens, UniProt P22303); assay: (§1) AChE/BuChE Inhibition Assay: The cholinesterase assays were performed using colorimetric method reported by Ellman. The appearance of product was monitored at 412 nm for 5 min using a spectrophotometer. The reaction rates were compared and the percent inhibition due to the presence of test compounds was calculated. Inhibition curve was obtained for each compound. The linear regression parameters were determined and the IC50 values extrapolated.
[2] = molecular target: Acetylcholinesterase (Electrophorus electricus, UniProt O42275); assay: as §1
[3] = molecular target: Cholinesterase (Homo sapiens, UniProt P06276); assay: as §1
Chain of Cholinesterase (P06276 whole entry): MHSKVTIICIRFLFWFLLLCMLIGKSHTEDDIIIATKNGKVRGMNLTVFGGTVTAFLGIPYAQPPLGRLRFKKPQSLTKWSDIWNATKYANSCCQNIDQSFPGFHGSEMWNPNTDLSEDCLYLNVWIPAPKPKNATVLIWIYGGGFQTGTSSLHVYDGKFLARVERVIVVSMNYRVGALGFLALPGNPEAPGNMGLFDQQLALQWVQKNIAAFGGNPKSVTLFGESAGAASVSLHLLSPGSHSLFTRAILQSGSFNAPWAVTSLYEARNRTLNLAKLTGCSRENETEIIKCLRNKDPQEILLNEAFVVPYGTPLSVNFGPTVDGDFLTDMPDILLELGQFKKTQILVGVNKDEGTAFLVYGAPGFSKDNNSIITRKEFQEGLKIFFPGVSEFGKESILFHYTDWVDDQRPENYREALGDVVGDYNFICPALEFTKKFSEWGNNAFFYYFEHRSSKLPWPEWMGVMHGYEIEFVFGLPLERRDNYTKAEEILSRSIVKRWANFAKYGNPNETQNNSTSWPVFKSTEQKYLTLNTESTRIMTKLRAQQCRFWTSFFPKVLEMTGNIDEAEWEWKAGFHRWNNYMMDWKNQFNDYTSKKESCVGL

Chain of Acetylcholinesterase (Homo sapiens, UniProt P22303) (P22303 whole entry): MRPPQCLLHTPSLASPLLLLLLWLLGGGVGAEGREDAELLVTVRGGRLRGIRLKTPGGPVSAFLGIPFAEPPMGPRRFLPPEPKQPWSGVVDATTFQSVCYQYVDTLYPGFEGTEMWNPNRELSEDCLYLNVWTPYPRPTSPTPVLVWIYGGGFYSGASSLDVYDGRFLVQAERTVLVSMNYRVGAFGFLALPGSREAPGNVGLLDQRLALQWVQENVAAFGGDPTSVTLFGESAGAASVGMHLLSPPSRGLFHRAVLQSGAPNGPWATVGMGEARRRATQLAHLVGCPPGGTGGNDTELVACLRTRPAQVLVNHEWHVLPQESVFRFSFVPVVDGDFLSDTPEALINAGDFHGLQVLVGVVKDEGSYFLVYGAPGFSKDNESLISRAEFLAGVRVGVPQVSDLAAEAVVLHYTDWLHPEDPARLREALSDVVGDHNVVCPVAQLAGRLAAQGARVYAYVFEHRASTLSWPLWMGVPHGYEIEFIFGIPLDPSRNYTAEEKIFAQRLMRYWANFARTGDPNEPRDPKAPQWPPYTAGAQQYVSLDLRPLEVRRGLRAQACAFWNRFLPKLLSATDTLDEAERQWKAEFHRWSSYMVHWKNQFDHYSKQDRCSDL
Chain of Acetylcholinesterase (Electrophorus electricus, UniProt O42275) (O42275 whole entry): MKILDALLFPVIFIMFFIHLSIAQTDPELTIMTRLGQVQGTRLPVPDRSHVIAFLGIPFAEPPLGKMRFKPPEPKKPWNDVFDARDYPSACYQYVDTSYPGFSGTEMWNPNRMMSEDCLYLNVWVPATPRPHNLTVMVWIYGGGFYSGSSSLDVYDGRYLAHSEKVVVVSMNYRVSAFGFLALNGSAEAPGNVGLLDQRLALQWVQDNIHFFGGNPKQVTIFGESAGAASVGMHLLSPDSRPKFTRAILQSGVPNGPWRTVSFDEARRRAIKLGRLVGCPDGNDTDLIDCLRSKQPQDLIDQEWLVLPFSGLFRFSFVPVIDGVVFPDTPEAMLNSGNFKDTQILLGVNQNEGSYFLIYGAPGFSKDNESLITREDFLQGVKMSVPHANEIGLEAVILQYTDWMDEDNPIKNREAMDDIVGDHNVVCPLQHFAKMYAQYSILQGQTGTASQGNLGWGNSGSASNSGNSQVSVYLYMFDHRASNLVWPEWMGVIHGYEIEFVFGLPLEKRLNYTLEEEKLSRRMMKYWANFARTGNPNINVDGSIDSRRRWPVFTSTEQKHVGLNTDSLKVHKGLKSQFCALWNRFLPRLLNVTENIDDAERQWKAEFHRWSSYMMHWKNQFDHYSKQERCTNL

`COc1ccc2nc(NCCc3cc[n+](Cc4ccccc4)cc3)sc2c1` showed an IC50 [1] of 0.186 µM, an IC50 [2] of 0.441 µM and an IC50 [3] of 3.01 µM.
Molecule `O=[N+]([O-])c1ccc2nc(NCCc3cc[n+](Cc4ccc(F)cc4)cc3)sc2c1` has an IC50 [1] of 0.096 µM, an IC50 [2] of 0.025 µM and an IC50 [3] of 11.9 µM.
`COc1ccc2nc(NCCc3cc[n+](Cc4c(F)cccc4F)cc3)sc2c1` was tested, and the IC50 [1] was 0.203 µM, the IC50 [2] was 0.408 µM and the IC50 [3] was 0.826 µM.
Molecule `COc1ccc2nc(NCCc3cc[n+](Cc4ccc(F)cc4)cc3)sc2c1` has an IC50 [1] of 0.223 µM, an IC50 [2] of 0.542 µM and an IC50 [3] of 5.63 µM.
Molecule `Fc1ccc(C[n+]2ccc(CCNc3nc4ccc(F)cc4s3)cc2)cc1` has an IC50 [1] of 0.269 µM, an IC50 [2] of 0.5 µM and an IC50 [3] of 8.16 µM.
